The test system of the test is human C-Myc gene transcription in MV-4-11 cells. As to the kind of experiment: Transcription of human C-Myc in human leukemic MV-4-11 cells (QuantiGene 2.0 assay). Particulars: MV4-11, 4 hours treatment, C-Myc mRNA by QuantiGene 2.0, read-out: IC50 (inhibition of C-Myc transcription). The class given is cell-based. The protocol: Transcription of Human C-Myc in Human Leukemic MV-4-11 Cells
The effect of compounds on transcription of human C-Myc gene is monitored in human B-myelomonocytic leukemia cell line MV-4-11 (from American Type Culture Collection (ATCC), Manassas, Va., USA) using QuantiGene 2.0 assay kit (Affymetrix, Santa Clara, Calif., USA).
Typically, 8,000 MV-4-11 cells are plated in sterile 96-well plates (Costar #3598 from Fisher Scientific Canada, Ottawa, Ontario, Canada) in Iscove's medium supplemented with 10% fetal bovine serum, glutamine (2 mM), and penicillin (100 I.U.) and streptomycin (100 μg/mL) (all from Wisent Inc., St. Bruno, Quebec, Canada). Compounds are dissolved in DMSO at 30 mM. A series of 1:3 dilutions are first made in DMSO, and further […] dilutions are made in serum-containing cell culture media. The final concentration of DMSO is 0.1% in cell culture media. After cells are treated with various concentrations of test compound for 4 hours, cells are lysed using Quantigene 2.0 sample processing kit (#QS0100). C-Myc mRNA is detected using a QuantiGene 2.0 assay kit (#QS0009) with gene-specific probe to human C-Myc (#SA-50182) following the manufacturer's recommendations. Luminescence signals are read on Flexstation II microplate reader (Molecular Devices, Sunnyvale, Calif., USA).

The IC50 is the concentration that inhibits the measured activity by half. Regarding `Cc1cc(-c2ccc3nnc(Cc4ccccc4)n3c2)cn(C)c1=O` [Compound 1, 5-(3-benzyl-[1,2,4]triazolo[4,3-a]pyridin-6-yl)-1,3-dimethyl-pyridin-2-one], the IC50 was determined as 0.253 µM.
In the case of `Cc1cc(-c2ccc3nnc(CC4CCOCC4)n3c2)cn(C)c1=O` [Compound 2] it was 2.35 µM.
On to `Cc1cc(-c2ccc3nnc(Cc4ccc(F)cc4)n3c2)cn(C)c1=O` [Compound 3, 5-[3-[(4-fluorophenyl)methyl]-[1,2,4]triazolo[4,3-a]pyridin-6-yl]-1,3-dimethyl-pyridin-2-one], for which the IC50 was 0.495 µM.
Take `Cc1cc(-c2ccc3nnc(Cc4ccc(Cl)cc4)n3c2)cn(C)c1=O` [Compound 4, 5-[3-[(4-chlorophenyl)methyl]-[1,2,4]triazolo[4,3-a]pyridin-6-yl]-1,3-dimethyl-pyridin-2-one]: the concentration for half-maximal inhibition (IC50) worked out at 0.156 µM.
As for `Cc1cc(-c2ccc3nnc(Cc4cccc(C(F)(F)F)c4)n3c2)cn(C)c1=O` [Compound 5, 1,3-dimethyl-5-[3-[[3-(trifluoromethyl)phenyl]methyl]-[1,2,4]triazolo[4,3-a]pyridin-6-yl]pyridin-2-one], the IC50 was 0.146 µM.
As for `Cc1cc(-c2ccc3nnc(Cc4ccccc4F)n3c2)cn(C)c1=O` [Compound 6, 5-[3-[(2-fluorophenyl)methyl]-[1,2,4]triazolo[4,3-a]pyridin-6-yl]-1,3-dimethyl-pyridin-2-one], the IC50 came out at 0.461 µM.
For `Cc1cc(-c2ccc3nnc([C@@H](C)c4ccccc4)n3c2)cn(C)c1=O` [Compound 7, 1,3-dimethyl-5-[3-[(1 S)-1-phenylethyl]-[1,2,4]triazolo[4,3-a]pyridin-6-yl]pyridin-2-one], the concentration for half-maximal inhibition (IC50) came to 0.085 µM.
As to `Cc1cc(-c2ccc3nnc(CC4CCCCC4)n3c2)cn(C)c1=O` [Compound 8, 5-[3-(cyclohexylmethyl)-[1,2,4]triazolo[4,3-a]pyridin-6-yl]-1,3-dimethyl-pyridin-2-one], the IC50 was 0.158 µM.
For `Cc1cc(-c2ccc3nnc(Cc4cc(F)cc(F)c4)n3c2)cn(C)c1=O` [Compound 9, 5-[3-[(3,5-difluorophenyl)methyl]-[1,2,4]triazolo[4,3-a]pyridin-6-yl]-1,3-dimethyl-pyridin-2-one], the IC50 was determined as 0.183 µM.
On to `Cc1cc(-c2ccc3nnc(Cc4ccc(C(F)(F)F)cc4)n3c2)cn(C)c1=O` [Compound 10, 1,3-dimethyl-5-[3-[[4-(trifluoromethyl)phenyl]methyl][1,2,4]triazolo[4,3-a]pyridin-6-yl]pyridin-2-one], for which the IC50 was 0.484 µM.
Turning to `Cc1cc(-c2ccc3nnc(C4(c5ccccc5)CC4)n3c2)cn(C)c1=O` [Compound 11, 1,3-dimethyl-5-[3-(1-phenylcyclopropyl)-[1,2,4]triazolo[4,3-a]pyridin-6-yl]pyridin-2-one], the IC50 turned out to be 0.09 µM.
Turning to `Cc1cc(-c2ccc3nnc([C@H](C)c4ccccc4)n3c2)cn(C)c1=O` [Compound 12, 1,3-dimethyl-5-[3-[(1R)-1-phenylethyl]-[1,2,4]triazolo[4,3-a]pyridin-6-yl]pyridin-2-one], the IC50 is 0.1 µM.
In the case of `Cc1cc(-c2ccc3nnc(Cc4cccc(F)c4)n3c2)cn(C)c1=O` [Compound 13, 5-[3-[(3-fluorophenyl)methyl]-[1,2,4]triazolo[4,3-a]pyridin-6-yl]-1,3-dimethyl-pyridin-2-one], the IC50 was 0.269 µM.
`Cc1cc(-c2ccc3nnc(C4(c5cccc(Cl)c5)CC4)n3c2)cn(C)c1=O` [Compound 14, 5-[3-[1-(3-chlorophenyl)cyclopropyl]-[1,2,4]triazolo[4,3-a]pyridin-6-yl]-1,3-dimethyl-pyridin-2-one]: the IC50 is 0.089 µM.
In the case of `Cc1cc(-c2ccc3nnc(C4(c5ccc(Cl)cc5)CC4)n3c2)cn(C)c1=O` [Compound 15, 5-[3-[1-(4-chlorophenyl)cyclopropyl]-[1,2,4]triazolo[4,3-a]pyridin-6-yl]-1,3-dimethyl-pyridin-2-one] it was 0.25 µM.
Take `Cc1ccc(C2(c3nnc4ccc(-c5cc(C)c(=O)n(C)c5)cn34)CC2)cc1` [Compound 16, 1,3-dimethyl-5-[3-[1-(p-tolyl)cyclopropyl]-[1,2,4]triazolo[4,3-a]pyridin-6-yl]pyridin-2-one]: the IC50 stood at 0.226 µM.
As to `Cc1cc(-c2ccc3nnc(C(C)(C)c4ccc(Cl)cc4)n3c2)cn(C)c1=O` [Compound 17, 5-[3-[1-(4-chlorophenyl)-1-methyl-ethyl]-[1,2,4]triazolo[4,3-a]pyridin-6-yl]-1,3-dimethyl-pyridin-2-one], the IC50 amounted to 0.59 µM.
In the case of `Cc1cc(-c2ccc3nnc(C4(c5ccc(Cl)cc5)CCC4)n3c2)cn(C)c1=O` [Compound 18, 5-[3-[1-(4-chlorophenyl)cyclobutyl]-[1,2,4]triazolo[4,3-a]pyridin-6-yl]-1,3-dimethyl-pyridin-2-one] it was 0.563 µM; in that of `Cc1cccc(C2(c3nnc4ccc(-c5cc(C)c(=O)n(C)c5)cn34)CC2)c1` [Compound 19, 1,3-dimethyl-5-[3-[1-(m-tolyl)cyclopropyl]-[1,2,4]triazolo[4,3-a]pyridin-6-yl]pyridin-2-one], 0.088 µM.
Turning to `Cc1cc(-c2ccc3nnc(C4(c5cccc(C(F)(F)F)c5)CC4)n3c2)cn(C)c1=O` [Compound 20, 1,3-dimethyl-5-[3-[1-[3-(trifluoromethyl)phenyl]cyclopropyl][1,2,4]-triazolo[4,3-a]pyridin-6-yl]pyridin-2-one], the IC50 is 0.061 µM.
Consider `Cc1cc(-c2ccc3nnc(C4(c5cccc(F)c5)CC4)n3c2)cn(C)c1=O` [Compound 21, 5-[3-[1-(3-fluorophenyl)cyclopropyl]-[1,2,4]triazolo[4,3-a]pyridin-6-yl]-1,3-dimethyl-pyridin-2-one], for which the IC50 is 0.158 µM.
As to `Cc1cc(-c2ccc3nnc(C4(c5ccccc5)CCC4)n3c2)cn(C)c1=O` [Compound 22, 1,3-dimethyl-5-[3-(1-phenylcyclobutyl)-[1,2,4]triazolo[4,3-a]pyridin-6-yl]pyridin-2-one], the IC50 was determined as 0.074 µM.
With `Cc1cc(-c2ccc3nnc(C4(c5ccccc5)CCCC4)n3c2)cn(C)c1=O` [Compound 23, 1,3-dimethyl-5-[3-(1-phenylcyclopentyl)-[1,2,4]triazolo[4,3-a]pyridin-6-yl]pyridin-2-one], the 50% inhibitory concentration (IC50) turned out to be 0.085 µM.
In the case of `Cc1cc(-c2ccc3nnc(C(C)(C)c4cccc(Cl)c4)n3c2)cn(C)c1=O` [Compound 24, 5-[3-[1-(3-chlorophenyl)-1-methyl-ethyl]-[1,2,4]triazolo[4,3-a]pyridin-6-yl]-1,3-dimethyl-pyridin-2-one], the IC50 was determined as 0.09 µM.
Take `Cc1cc(-c2ccc3nnc(C4(c5ccccc5)CCCCC4)n3c2)cn(C)c1=O` [Compound 25, 1,3-dimethyl-5-[3-(1-phenylcyclohexyl)-[1,2,4]triazolo[4,3-a]pyridin-6-yl]pyridin-2-one]: the IC50 was 0.054 µM.
Regarding `Cc1cc(-c2ccc3nnc(CCc4ccccc4)n3c2)cn(C)c1=O` [Compound 26, 1,3-dimethyl-5-[3-(2-phenylethyl)-[1,2,4]triazolo[4,3-a]pyridin-6-yl]pyridin-2-one], the IC50 turned out to be 0.835 µM.
On to `Cc1cc(-c2ccc3nnc(C(C)(C)c4ccccc4)n3c2)cn(C)c1=O` [Compound 27, 1,3-dimethyl-5-[3-(1-methyl-1-phenyl-ethyl)-[1,2,4]triazolo[4,3-a]-pyridin-6-yl]pyridin-2-one], for which the IC50 is 0.227 µM.

The values above are taken from patent publication US10519151B2, “Substituted [1,2,4]triazolo[4,3-A]pyridines, their preparation and their use as pharmaceuticals” (NEOMED Institute, priority 2016, dated 2019).
